Test results from PubChem BioAssay (NCI).
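Cells were grown in 96-well plates and exposed to each compound for 48 hours at five concentrations; endpoints were interpolated linearly between bracketing concentrations, or set to the highest concentration if not reached. TGI: concentration producing complete growth inhibition.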

How the values were obtained:
Assay in all cases: NCI tumour cell line growth inhibition, 48 h
A549 NSCLC = test system: A549 NSCLC
BT-549 breast = test system: BT-549 breast
COLO 205 colon = test system: COLO 205 colon
HOP-62 NSCLC = test system: HOP-62 NSCLC
HOP-92 NSCLC = test system: HOP-92 NSCLC
HT29 colon = test system: HT29 colon
LOX IMVI melanoma = test system: LOX IMVI melanoma
M14 melanoma = test system: M14 melanoma
MALME-3M melanoma = test system: MALME-3M melanoma
MDA-MB-435 = test system: MDA-MB-435
NCI-H226 lung = test system: NCI-H226 lung
NCI-H460 lung = test system: NCI-H460 lung
OVCAR-5 ovarian = test system: OVCAR-5 ovarian
OVCAR-8 ovarian = test system: OVCAR-8 ovarian
SK-MEL-2 melanoma = test system: SK-MEL-2 melanoma
SK-MEL-28 melanoma = test system: SK-MEL-28 melanoma
SNB-19 CNS = test system: SNB-19 CNS
SNB-75 CNS = test system: SNB-75 CNS
HCT-15 colon = test system: HCT-15 colon
OVCAR-4 ovarian = test system: OVCAR-4 ovarian

Structure (SMILES)	TGI (A549 NSCLC) [µM]	TGI (BT-549 breast) [µM]	TGI (COLO 205 colon) [µM]	TGI (HOP-62 NSCLC) [µM]	TGI (HOP-92 NSCLC) [µM]	TGI (HT29 colon) [µM]	TGI (LOX IMVI melanoma) [µM]	TGI (M14 melanoma) [µM]	TGI (MALME-3M melanoma) [µM]	TGI (MDA-MB-435) [µM]	TGI (NCI-H226 lung) [µM]	TGI (NCI-H460 lung) [µM]	TGI (OVCAR-5 ovarian) [µM]	TGI (OVCAR-8 ovarian) [µM]	TGI (SK-MEL-2 melanoma) [µM]	TGI (SK-MEL-28 melanoma) [µM]	TGI (SNB-19 CNS) [µM]	TGI (SNB-75 CNS) [µM]	TGI (HCT-15 colon) [µM]	TGI (OVCAR-4 ovarian) [µM]
C=CCn1c(=O)c(C)cn(COCCO)c1=O	> 100	> 100	> 100	> 100	> 100	> 100	> 100	> 100	> 100	> 100	> 100	> 100	> 100	> 100	> 100	> 100	> 100	> 100		
Fc1ccc(C(OCCN2CCN(CCCc3ccccc3)CC2)c2ccc(F)cc2)cc1	14	19.3	10.1	17.7	11.6	12.3	15.6	11.3	17	14	13.9	15.3	15.7	13	12.2	23.6	14.5	16.4	13.4	15.8
COC(=O)[C@H]1C=NN[C@@H]1C(=O)N1[C@H]2CC3CC[C@@]2(CS1(=O)=O)C3(C)C	> 100	> 100	> 100	> 100	> 100		> 100	> 100	> 100	> 100	> 100	> 100	> 100	> 100	> 100	> 100	> 100		> 100	> 100
CCOC(=O)C(C#N)(Cc1c[nH]c2ccccc12)NC(C)=O (configuration not stated)			> 100	> 100	> 100	> 100	> 100	> 100	> 100		> 100	> 100	> 100	> 100	> 100	> 100		> 100	> 100	> 100
